One data set concerns the target T1, human ETA receptor (Homo sapiens, UniProt P25101).
T1 construct: expressed in transfected cells; host or cells: 293T-17 cells, transient transfection
T1 sequence (P25101 21-427): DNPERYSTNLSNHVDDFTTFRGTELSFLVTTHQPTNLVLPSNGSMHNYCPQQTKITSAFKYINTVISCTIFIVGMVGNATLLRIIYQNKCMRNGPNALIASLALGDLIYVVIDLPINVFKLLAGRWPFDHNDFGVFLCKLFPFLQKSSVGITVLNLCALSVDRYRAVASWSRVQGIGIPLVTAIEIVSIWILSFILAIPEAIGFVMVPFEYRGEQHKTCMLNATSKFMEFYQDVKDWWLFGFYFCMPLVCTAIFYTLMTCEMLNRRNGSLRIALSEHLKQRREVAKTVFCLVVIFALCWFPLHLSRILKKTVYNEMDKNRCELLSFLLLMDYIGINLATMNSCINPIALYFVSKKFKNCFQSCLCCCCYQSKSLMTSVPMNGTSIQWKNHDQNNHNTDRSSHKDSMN
As to the kind of experiment: Selectivity of polypeptides on human ETA receptor (IP-One Gq kit, % of positive control ET1). It is filed as cell-based. The gist of the method: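 293T-17 cells transiently transfected with human ETA receptor (48 h), 30,000 cells/well exposed to polypeptides for 1 h at 37°C; IP1 accumulation by HTRF (665/620 nm ratio). Activity given as % of ET1 at the same concentration after PBS-control subtraction.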

The nature of data set [1]: Determination of half-lives of polypeptides (plasma, LC-MS). The note with it: for half-life: C57 BL/6, mouse, plasma, iv; for AUClast 0-30 min: C57 BL/6 mice, i.v., dosage per compound 0.48, 0.96 or 1 mpk.
The mark [2] stands for this setting: read-out: hETAR agonist activity, percentage of activity relative to ET1.

Read-outs that look alike come from different tables or passages of the source. Numbered stars: 1 amine (or outer) side, 2 acyl side, 3 side chain; on linkers, the order of the positions; unused ones are H or OH. Side chains are listed from the residue outwards. Ends that are not written are not given here. Peptide text beside a SMILES is read from it. * marks the point of attachment. X1 = C[C@H](NC(=O)[C@@H]1CCCN1C(=O)[C@@H](N)CSC1CC(=O)N(CCC(=O)*)C1=O)C(=O)N[C@@H](CCCCN)C(=O)O; C18 diacid = O=C(O)CCCCCCCCCCCCCCCCC(=O)*; γGlu = O=C(O)[C@H](CCC(=O)[*:2])N[*:1]; Fumaroyl = O=C(O)/C=C/C(=O)*; Suc = O=C(CCC(=O)[*:2])[*:1]; Lauroyl = CCCCCCCCCCCC(=O)*; AEEA = NCCOCCOCC(=O)O

In the case of `CCCCCCCCCCCC(=O)N[C@@H](CCC(=O)NCCOCCOCC(=O)NCCCC[C@H](NC(=O)[C@H](Cc1c[nH]cn1)NC(=O)[C@H](C)NC(=O)[C@H](Cc1ccccc1)NC(=O)[C@H](Cc1ccc(O)cc1)NC(=O)[C@@H](NC(=O)[C@H](C)NC(=O)[C@H](CCC(=O)O)NC(=O)[C@H](CCC(=O)O)NC(=O)[C@H](CC(=O)O)NC(=O)/C=C/C(=O)O)C(C)C)C(=O)N[C@@H](CC(=O)O)C(=O)N[C@H](C(=O)N[C@H](C(=O)N[C@@H](Cc1c[nH]c2ccccc12)C(=O)O)[C@@H](C)CC)C(C)C)C(=O)O` [BX229-Na] (Fumaroyl-DEEAVYFAHK([AEEA-γGlu-Lauroyl])DVIW-OH), the activation at 100 µM at human ETA receptor (@100µM, read-out: hETAR agonist activity, percentage of activity relative to ET1) is 0.68%.
With `CCCCCCCCCCCC(=O)N[C@@H](CCC(=O)NCCOCCOCC(=O)NCCCC[C@H](NC(=O)[C@H](Cc1c[nH]cn1)NC(=O)[C@H](C)NC(=O)[C@H](Cc1ccccc1)NC(=O)[C@H](Cc1ccc(O)cc1)NC(=O)[C@@H](NC(=O)[C@H](C)NC(=O)[C@H](CCC(=O)O)NC(=O)[C@H](CCC(=O)O)NC(=O)[C@H](CC(=O)O)NC(=O)/C=C/C(=O)O)C(C)C)C(=O)N[C@@H](CC(=O)O)C(=O)N[C@H](C(=O)N[C@H](C(=O)N[C@@H](Cc1c[nH]c2ccccc12)C(=O)O)[C@@H](C)CC)[C@@H](C)CC)C(=O)O` [BX-225] (Fumaroyl-DEEAVYFAHK([AEEA-γGlu-Lauroyl])DIIW-OH), on human ETA receptor (setting [2]), the activation at 10 µM came out at 0.52% and the activation at 100 µM turned out to be 3.59%. Also, in data set [1], the half-life (commonly the time in which the quantity being followed falls by half) is 37 min and the “AUClast 0-30 min” value was 4981 ng·h/mL.
Regarding “Suc-DE cyclo(CEEC)YFAHKDIIW (Suc-DECEECYFAHKDIIW; not fully specified (bridges); printed as Suc-DE cyclo(CEEC)YFAHKDIIW; also: cyclo(CEEC) in N-terminal extension, bond type not given here) [BX-57]”, the “hETAR agonist activity, percentage of activity relative to ET1” value is given as -10.53%@100µM with human ETA receptor and -29.04%@10µM with human ETA receptor (@10µM).
With “Fum-DEEEVYFAHKDIIW (Fumaroyl-DEEEVYFAHKDIIW) [BX-52]”, the “hETAR agonist activity, percentage of activity relative to ET1” value is given as -2.49%@10nM with human ETA receptor (@10nM) and -11.24%@100nM with human ETA receptor (@100nM).
On to `CC[C@H](C)[C@H](NC(=O)[C@H](CC(=O)O)NC(=O)[C@H](CC(C)C)NC(=O)[C@H](Cc1c[nH]cn1)NC(=O)[C@H](C)NC(=O)[C@H](Cc1ccccc1)NC(=O)[C@H](Cc1ccc(O)cc1)NC(=O)[C@@H](NC(=O)[C@H](C)NC(=O)[C@H](CCC(=O)O)NC(=O)[C@H](CCC(=O)O)NC(=O)[C@H](CC(=O)O)NC(=O)CCC(=O)O)C(C)C)C(=O)N[C@H](C(=O)N[C@@H](Cc1c[nH]c2ccccc12)C(=O)O)[C@@H](C)CC` [IRL1620, reference compound] (Suc-DEEAVYFAHLDIIW-OH), for which, in data set [1], the half-life is below 2.6 min and the “AUClast 0-30 min” value is 130 ng·h/mL.
As for `CC[C@H](C)[C@H](NC(=O)[C@H](CC(=O)O)NC(=O)[C@H](CCCCNC(=O)COCCOCCNC(=O)CCN1C(=O)CC(SC[C@H](N)C(=O)N2CCC[C@H]2C(=O)N[C@@H](C)C(=O)N[C@@H](CCCCN)C(=O)O)C1=O)NC(=O)[C@H](Cc1c[nH]cn1)NC(=O)[C@H](C)NC(=O)[C@H](Cc1ccccc1)NC(=O)[C@H](Cc1ccc(O)cc1)NC(=O)[C@@H](NC(=O)[C@H](C)NC(=O)[C@H](CCC(=O)O)NC(=O)[C@H](CCC(=O)O)NC(=O)[C@H](CC(=O)O)NC(=O)/C=C/C(=O)O)C(C)C)C(=O)N[C@H](C(=O)N[C@@H](Cc1c[nH]c2ccccc12)C(=O)O)[C@@H](C)CC` (stereo partly shown) [BX-95] (Fumaroyl-DEEAVYFAHK([AEEA-X1])DIIW-OH), at human ETA receptor (setting [2]), the activation at 10 µM is -9.81% and the activation at 100 µM was -7.46%.
For the molecule Fum-DEEEVYFAHOrnDIIW [BX-59], the “hETAR agonist activity, percentage of activity relative to ET1” value at human ETA receptor is -7.67%@100µM; at human ETA receptor (@10µM), -10.61%@10µM.
For the molecule `CC[C@H](C)[C@H](NC(=O)[C@H](CC(=O)O)NC(=O)[C@H](CCCCNC(=O)COCCOCCNC(=O)COCCOCCNC(=O)CC[C@H](NC(=O)CCCCCCCCCCCCCCCCC(=O)O)C(=O)O)NC(=O)[C@H](Cc1c[nH]cn1)NC(=O)[C@H](C)NC(=O)[C@H](Cc1ccccc1)NC(=O)[C@H](Cc1ccc(O)cc1)NC(=O)[C@@H](NC(=O)[C@H](C)NC(=O)[C@H](CCC(=O)O)NC(=O)[C@H](CCC(=O)O)NC(=O)[C@H](CC(=O)O)NC(=O)/C=C/C(=O)O)C(C)C)C(=O)N[C@H](C(=O)N[C@@H](Cc1c[nH]c2ccccc12)C(=O)O)[C@@H](C)CC` [BX-34] (Fumaroyl-DEEAVYFAHK([AEEA-AEEA-γGlu-C18 diacid])DIIW-OH), on human ETA receptor (setting [2]), the activation at 0.01 µM is -23.5% and the activation at 0.1 µM was -11%. For the same molecule, in data set [1], the half-life came to 63 min and the “AUClast 0-30 min” value stood at 7736 ng·h/mL.
